Consider 28 compounds from patent US20190297887A1, “BICYCLIC COMPOUNDS AS PESTICIDES” (Bayer CropScience Aktiengesellschaft, priority 2016, published 2019).

Read-outs that look alike come from different tables or passages of the source.

Data set [1] relates to southern root-knot nematode (Meloidogyne incognita). Put plainly: Meloidogyne incognita test. Format: in vivo. The note with it: application rate 20 ppm; after 14 days; lettuce in sand; 100% = no galls. How it is done: Meloidogyne incognita Test Solvent: 125.0 parts by weight of acetone To produce a suitable active ingredient formulation, 1 part by weight of active ingredient is mixed with the stated amount of solvent and the concentrate is diluted to the desired concentration with water. Vessels are filled with sand, active ingredient solution, an egg/larvae suspension of the southern root-knot nematode (Meloidogyne incognita) and lettuce seeds. The lettuce seeds germinate and the plants develop. The galls develop on the roots. After 14 days, the nematicidal efficacy in % is determined by the formation of galls. 100% means that no galls were found; 0% means that the number of galls on the treated plants corresponds to the untreated control.

The subject of data set [2] is green peach aphids (Myzus persicae). Put plainly: Myzus persicae - oral test. The note with it: 120 h, application rate 4 ppm, after 5 days, oral uptake from microtitre plate, read-out: efficacy in % (aphids killed). It counts as in vivo. How it is done: Myzus persicae—Oral Test Solvent: 100 parts by weight of acetone To produce a suitable active ingredient formulation, 1 part by weight of active ingredient is dissolved with the stated parts by weight of solvent and made up to the desired concentration with water. 50 μl of the active ingredient formulation are transferred into microtitre plates and made up to a final volume of 200 μl with 150 μl of IPL41 insect medium (33%+15% sugar). Subsequently, the plates are sealed with parafilm, which a mixed population of green peach aphids (Myzus persicae) within a second microtitre plate is able to puncture and imbibe the solution. After 5 days, the efficacy in % is determined. 100% means that all the aphids have been killed; 0% means that no aphids have been killed.

Data set [3] deals with green peach aphid (Myzus persicae). Put plainly: Myzus persicae - spray test. It counts as in vivo. The note with it: foliar, application rate 500 g/ha, after 5-6 days, sprayed Chinese cabbage leaf discs, read-out: efficacy in % (aphids killed). How it is done:
Myzus persicae—Spray Test Solvent: 78 parts by weight of acetone • • 1.5 parts by weight of dimethylformamide Emulsifier: alkylaryl polyglycol ether To produce a suitable active ingredient formulation, 1 part by weight of active ingredient is dissolved with the specified parts by weight of solvent and made up to the desired concentration with water containing an emulsifier concentration of 1000 ppm. To produce further test concentrations, the formulation is diluted with emulsifier-containing water. Discs of Chinese cabbage leaves (Brassica pekinensis) infested by all stages of the green peach aphid (Myzus persicae) are sprayed with an active ingredient formulation of the desired concentration. After 5-6 days, the efficacy in % is determined. 100% means that all the aphids have been killed; 0% means that no aphids have been killed.

Data set [4] is described as follows: log P determination by HPLC on reversed-phase columns (OECD Guideline 117). It counts as physicochemical. The note with it: reversed-phase (C18) HPLC column. The protocol: The log P values were determined in accordance with OECD Guideline 117 (EC Directive 92/69/EEC) by HPLC (high-performance liquid chromatography) using reversed-phase (RP) columns (C18), by the following methods: [a] The LC-MS determination in the acidic range is carried out at pH 2.7 with 0.1% aqueous formic acid and acetonitrile (contains 0.1% formic acid) as eluents; linear gradient from 10% acetonitrile to 95% acetonitrile. [b] LC-MS determination in the neutral range is carried out at pH 7.8 with 0.001 molar aqueous ammonium hydrogencarbonate solution and acetonitrile as eluents; linear gradient from 10% acetonitrile to 95% acetonitrile. Calibration is effected using unbranched alkan-2-ones (having 3 to 16 carbon atoms) with known log P values (log P values determined on the basis of the retention times by linear interpolation between two successive alkanones).

Data set [5] has as its system larvae of the mustard beetle (Phaedon cochleariae). Put plainly: Phaedon cochleariae - spray test. It counts as in vivo. The note with it: application rate 500 g/ha; after 7 days; sprayed Chinese cabbage leaf discs. The protocol:
Phaedon cochleariae—Spray Test
Solvent: 78.0 parts by weight of acetone • • 1.5 parts by weight of dimethylformamide
Emulsifier: alkylaryl polyglycol ether
To produce a suitable active ingredient formulation, 1 part by weight of active ingredient is dissolved with the specified parts by weight of solvent and made up to the desired concentration with water containing an emulsifier concentration of 1000 ppm. To produce further test concentrations, the formulation is diluted with emulsifier-containing water.
Discs of Chinese cabbage leaves (Brassica pekinensis) are sprayed with an active compound formulation of the desired concentration and, after drying, populated with larvae of the mustard beetle (Phaedon cochleariae).
After 7 days, the efficacy in % is determined. 100% means that all the beetle larvae have been killed; 0% means that no beetle larvae have been killed.

[6] abbreviates: acidic range, pH 2.7, 0.1% aqueous formic acid/acetonitrile, read-out: log P(HCOOH).
Where [7] appears, read: neutral range, pH 7.8, 0.001 molar aqueous ammonium hydrogencarbonate/acetonitrile, read-out: log P(neutral).

Turning to `Cn1c(=O)n(C)n(-c2ccc3nn(-c4cccnc4)cc3c2)c1=O` [Example 1, 1,4-Dimethyl-2-[2-(pyridin-3-yl)-2H-indazol-5-yl]-1,2,4-triazolidine-3,5-dione], the “nematicidal efficacy in % (formation of galls)” value in data set [1] came to 90%. For the same compound, the pest or weed control at 4 ppm in data set [2] was found to be 100%. For the same compound, in data set [3], the pest or weed control at 500 g/ha was 90%. Besides, the chromatographic logP in data set [4] (setting [6]) worked out at 1.24; in data set [4] (setting [7]), 1.31.

For the compound `Cn1c(=O)cnn(-c2ccc3nn(-c4cccnc4)cc3c2)c1=O` [Example 2, 4-Methyl-2-[2-(pyridin-3-yl)-2H-indazol-5-yl]-1,2,4-triazine-3,5(2H,4H)-dione], in data set [2], the pest or weed control at 4 ppm was 100%. Moreover, the pest or weed control at 500 g/ha in data set [3] was 90%. Further, the chromatographic logP in data set [4] (setting [6]) was found to be 1.38; in data set [4] (setting [7]), 1.47.

Take `Cn1c(=O)n(C2CC2)c(=O)n1-c1ccc2nn(-c3cccnc3)cc2c1` [Example 3]: the pest or weed control at 4 ppm in data set [2] is 100%. In data set [3], the pest or weed control at 500 g/ha amounted to 100%.

As for `Cn1c(=O)n(-c2ccccc2)c(=O)n1-c1ccc2nn(-c3cccnc3)cc2c1` [Example 4], the pest or weed control at 4 ppm in data set [2] is 100%. Besides, the pest or weed control at 500 g/ha in data set [3] amounted to 90%. Also, the “efficacy in % (beetle larvae killed)” value in data set [5] was found to be 83%.

In the case of `CCn1c(=O)n(C)n(-c2ccc3nn(-c4cccnc4)cc3c2)c1=O` [Example 5], in data set [2], the pest or weed control at 4 ppm came out at 100%. Also, in data set [3], the pest or weed control at 500 g/ha came out at 90%.

Turning to `CSCCn1c(=O)n(C)n(-c2ccc3nn(-c4cccnc4)cc3c2)c1=O` [Example 6], in data set [2], the pest or weed control at 4 ppm was 90%. The pest or weed control at 500 g/ha in data set [3] was 100%.

As for `Cn1c(=O)n(CC2CC2)c(=O)n1-c1ccc2nn(-c3cccnc3)cc2c1` [Example 7], the pest or weed control at 4 ppm in data set [2] stood at 100%. Moreover, the pest or weed control at 500 g/ha in data set [3] amounted to 90%.

For the compound `Cn1c(=O)n(Cc2ccccc2)c(=O)n1-c1ccc2nn(-c3cccnc3)cc2c1` [Example 8], the pest or weed control at 4 ppm in data set [2] amounted to 100%. Moreover, the pest or weed control at 500 g/ha in data set [3] worked out at 100%.

For `Cn1c(=O)n(CC(F)(F)F)c(=O)n1-c1ccc2nn(-c3cccnc3)cc2c1` [Example 9], in data set [2], the pest or weed control at 4 ppm came out at 100%. The pest or weed control at 500 g/ha in data set [3] stood at 90%.

In the case of `Cn1c(=O)n(CC(F)(F)F)n(-c2ccc3nn(-c4cccnc4)cc3c2)c1=O` [Example 10], the pest or weed control at 4 ppm in data set [2] was determined as 100%.

`Cn1c(=O)n(CC[S+](C)[O-])c(=O)n1-c1ccc2nn(-c3cccnc3)cc2c1` (stereo not shown) [Example 11]: the pest or weed control at 4 ppm in data set [2] stood at 100%. Moreover, the pest or weed control at 500 g/ha in data set [3] was 90%.

With `COCCn1c(=O)n(C)n(-c2ccc3nn(-c4cccnc4)cc3c2)c1=O` [Example 12], the pest or weed control at 4 ppm in data set [2] came out at 100%. Further, in data set [3], the pest or weed control at 500 g/ha stood at 90%.

Consider `CC(C)n1c(=O)n(C)n(-c2ccc3nn(-c4cccnc4)cc3c2)c1=O` [Example 13], for which, in data set [2], the pest or weed control at 4 ppm was found to be 90%.

Regarding `Cn1c(=O)n(CC(F)F)c(=O)n1-c1ccc2nn(-c3cccnc3)cc2c1` [Example 14], in data set [2], the pest or weed control at 4 ppm was found to be 100%. In data set [3], the pest or weed control at 500 g/ha was 90%.

For the compound `Cn1c(=O)n(Cc2ccc(Cl)cc2)c(=O)n1-c1ccc2nn(-c3cccnc3)cc2c1` [Example 15], in data set [2], the pest or weed control at 4 ppm came out at 100%.

`Cn1c(=O)n(Cc2ccccc2Cl)c(=O)n1-c1ccc2nn(-c3cccnc3)cc2c1` [Example 16]: the pest or weed control at 4 ppm in data set [2] is 90%.

On to `Cn1c(=O)n(Cc2cccc(Cl)c2)c(=O)n1-c1ccc2nn(-c3cccnc3)cc2c1` [Example 17], for which the pest or weed control at 4 ppm in data set [2] worked out at 100%.

`CCn1c(=O)n(C)n(-c2cnc3nn(-c4cccnc4)cc3c2)c1=O` [Example 18]: the pest or weed control at 4 ppm in data set [2] was 100%. Also, in data set [3], the pest or weed control at 500 g/ha was 100%.

`Cn1c(=O)n(C)n(-c2cnc3nn(-c4cccnc4)cc3c2)c1=O` [Example 19]: the pest or weed control at 4 ppm in data set [2] came to 90%. Besides, the pest or weed control at 500 g/ha in data set [3] came to 100%.

On to `Cn1c(=O)n(C2CC2)c(=O)n1-c1cnc2nn(-c3cccnc3)cc2c1` [Example 20], for which, in data set [2], the pest or weed control at 4 ppm was found to be 100%. In data set [3], the pest or weed control at 500 g/ha was 90%.

For the compound `Cn1c(=O)n(CC2CC2)c(=O)n1-c1cnc2nn(-c3cccnc3)cc2c1` [Example 21], the pest or weed control at 4 ppm in data set [2] came out at 100%. For the same compound, the pest or weed control at 500 g/ha in data set [3] was 100%.

On to `CC(C)n1c(=O)n(C)n(-c2cnc3nn(-c4cccnc4)cc3c2)c1=O` [Example 22], for which the pest or weed control at 4 ppm in data set [2] is 100%.

As for `Cn1c(=O)n(Cc2ccc(Cl)nc2)c(=O)n1-c1ccc2nn(-c3cccnc3)cc2c1` [Example 23], in data set [2], the pest or weed control at 4 ppm is 100%. Besides, the pest or weed control at 500 g/ha in data set [3] amounted to 100%.

As to `O=c1cnn(-c2ccc3nn(-c4cccnc4)cc3c2)c(=O)n1CC(F)(F)F` [Example 24], the pest or weed control at 4 ppm in data set [2] is 100%.

Turning to `CCn1c(=O)cnn(-c2ccc3nn(-c4cccnc4)cc3c2)c1=O` [Example 25], the pest or weed control at 4 ppm in data set [2] worked out at 100%. Further, the pest or weed control at 500 g/ha in data set [3] was 100%. Further, the “efficacy in % (beetle larvae killed)” value in data set [5] amounted to 83%.

For `O=c1cnn(-c2ccc3nn(-c4cccnc4)cc3c2)c(=O)n1CC1CC1` [Example 26], the pest or weed control at 4 ppm in data set [2] stood at 100%. Further, the pest or weed control at 500 g/ha in data set [3] worked out at 90%.

As for `O=c1cnn(-c2ccc3nn(-c4cccnc4)cc3c2)c(=O)n1Cc1ccccc1` [Example 27], the pest or weed control at 4 ppm in data set [2] came to 100%. Besides, the pest or weed control at 500 g/ha in data set [3] worked out at 90%.

Regarding `O=c1cnn(-c2ccc3nn(-c4cccnc4)cc3c2)c(=O)n1-c1ccccc1` [Example 28], in data set [2], the pest or weed control at 4 ppm came out at 90%.
